# From US20230338374A1, “MDM2 INHIBITORS FOR USE IN THE TREATMENT OR PREVENTION OF HEMATOLOGIC NEOPLASM RELAPSE AFTER HEMATOPOIETIC CELL TRANSPLANTATION” (Novartis AG, priority 2020, published 2023)
# Like-named read-outs stand apart in the source and are kept apart here.
# How the values were obtained:
# [1] = cited from earlier work
# [2] = oral; no dose-limiting toxicities; cited from earlier work
# [3] = cited from earlier work; remark: listed apart in the source
# [4] = single oral doses; GI toxicities the most common AEs; cited from earlier work
# donor CD8^+ T-cells = experiment: T cell phenotyping in the GvL mouse model (WEHI-3B), spleen day 12; format: in vivo; conditions: allo-transplanted leukemia bearing BALB/c mice, vs vehicle
# From the text: FIG. 3: MDM2-inhibition promotes cytotoxicity and longevity of donor T cells • (a-h) Scatter plots and representative histograms show expression of Perforin (a, b), CD107a (c, d), IFN-γ (e, f), TNF-α (g, h) of CD8^+ T-cells isolated from spleen on day 12 following allo-HCT of WEHI-3B leukemia bearing BALB/c mice transplanted with C57BL/6 BM plus allogeneic C57BL/6 T-cells and treated with either vehicle or MDM2-inhibitor RG-7112. Mean value±SEM from n=14-19 biologically independent animals per group from 2 experiments are shown and p-values were calculated using two-sided Mann-Whitney U test. (m) Quantification of donor-derived (H-2kb+) TCRb+CD8+CD27+ TIM3+ T cells from allo-transplanted leukemia bearing BALB/c mice treated with RG-7112 or vehicle as indicated. (a) A representative flow cytometry histogram depicts the mean fluorescence intensity (MFI) and scatter plot showing fold-change of MFI for CD69 of all living donor (H-2kb^+) CD8^+ T cells from leukemia bearing BALB/c mice undergoing allo-HCT and being treated with vehicle. […] P-values were calculated using the two-sided Mann-Whitney U test. […] P-values were calculated using the two-sided Mann-Whitney U test. No difference in CD8 T-cells/all CD3 T-cells was detected. […] Mean value±SEM from n=14-19 biologically independent animals per group from 2 experiments are shown and p-value was calculated using two-sided Mann-Whitney U test. […]
# [5] = combined with pimasertib, cited from earlier work
# advanced solid tumor = conditions: cited from earlier work
# [6] = tested on: p53-knockdown OCI-AML3 cells; experiment: Expression in p53-knockdown cells (flow cytometry, western blot); format: cell-based, human; conditions: FIG. 9a
# Method: MFI of control-treated cells was set as 1.0. P-values were calculated using the two-sided Student's unpaired t-test.
# MFI of control-treated cells was set as 1.0. P-values were calculated using two-sided Student's unpaired t-test.
# (a) Representative western blot (left panel) showing the expression of MDM2, p53 and loading control (GAPDH) in WT OCI-AML3 cells or p53 knockdown OCI-AML3 cells exposed to […] doxorubicin for 4 hours, when indicated. Right panel: Quantification of the relative intensity of the protein bands for each group.
# P53 knockdown cells have been previously described (24). The p53 shRNA (p53.1224) had been cloned into a retroviral vector that co-expressed red fluorescent protein and which could be induced by doxycycline (24). […]
# For excluding dead cells, the LIVE/DEAD Fixable Dead Cell Stain kit (Molecular Probes, USA) or LIVE/DEAD™ Fixable Aqua Dead Cell Stain Kit (Thermo Scientific) along with True Stain FcX (BioLegend) were used, according to the manufacturer's instructions. For all flurochrome-conjugated antibodies, optimal concentrations were determined using titration experiments. […] Data were acquired on the BD LSR Fortessa flow cytometer (BD Biosciences, Germany) and analyzed using Flow Jo software version 10.4 (Tree Star, USA). […]
# OCI-AML3 cells = experiment: Killing assay with recombinant hTRAIL, viability by flow cytometry; format: cell-based, human; conditions: p53^−/− AML cells, FIG. 9e
# Method: After 48 hours limiting concentrations of hTRAIL (TNFSF 10) were added for 24 hours, where indicated. The viability of the AML cells was measured by flow cytometry. […] P-values were calculated using two-sided Student's unpaired t-test.
# Where indicated wildtype OCI-AML3 (WT) or p53 knockout (p53^−/−) OCI-AML3 were incubated with 1 μM MDM2-inhibitor RG7112. After 48 hours limiting concentrations of hTRAIL (TNFSF 10) were added for 24 hours where indicated. Viability of cells was measured by flow cytometry. […] P-values were calculated using two-sided Student's unpaired t-test.
# For Killing assays using recombinant hTRAIL ((TNFSF 10, Apo-2L, CD253;) […]®; ENZO), the ligand was added for 24 h 0.5 μg/ml (1:1000) for optimal killing and 0.25 μg/ml (1:2000) for limiting killing conditions to OCI-AML3 target cells. Viability of cells was assessed by LIVE/DEAD™ Fixable Aqua Dead Cell Stain Kit (Thermo Scientific). Data were acquired on the BD LSR Fortessa flow cytometer (BD Biosciences) and analyzed using Flow Jo software version 10.4 (Tree Star).
molecule,measurement,setting,value
CC(C)[C@@H](CS(=O)(=O)C(C)C)N1C(=O)[C@@](C)(CC(=O)O)C[C@H](c2cccc(Cl)c2)[C@H]1c1ccc(Cl)cc1 [AMG 232],MTD,[1]; dose escalation discontinued because of gastrointestinal AEs,not reached
same,treatment-related AE decreased appetite,[1]; in vivo,25%
same,treatment-related AE diarrhea,[1]; in vivo,56%
same,treatment-related AE nausea,[1]; in vivo,58%
same,treatment-related AE vomiting,[1]; in vivo,33%
CCN1[C@@H](C(=O)NC23CCC(C(=O)O)(CC2)CC3)[C@H](c2cccc(Cl)c2F)[C@]2(C(=O)Nc3cc(Cl)ccc32)C12CCCCC2 [APG-115],optimum dose,[2],100 mg
COc1ncc(-c2nc3c(n2C(C)C)[C@H](c2ccc(Cl)cc2)N(c2cc(Cl)cn(C)c2=O)C3=O)c(OC)n1 [HDM201],grade 3/4 adverse event anemia,[3]; Reg 1,8%
same,grade 3/4 adverse event neutropenia,[3]; Reg 1,26%
same,grade 3/4 adverse event thrombocytopenia,[3]; Reg 1,24%
same,grade 3/4 adverse event anemia,[3]; Reg 2,17%
same,grade 3/4 adverse event neutropenia,[3]; Reg 2,14%
same,grade 3/4 adverse event thrombocytopenia,[3]; Reg 2,28%
CCOc1cc(C(C)(C)C)ccc1C1=N[C@@](C)(c2ccc(Cl)cc2)[C@@](C)(c2ccc(Cl)cc2)N1C(=O)N1CCN(CCCS(C)(=O)=O)CC1 [RG7112],tolerability,[4],generally well tolerated
same,CD8 T-cells/all CD3 T-cells,donor CD8^+ T-cells,No difference
CC(C)(C)C[C@@H]1N[C@@H](C(=O)N[C@H]2CC[C@H](O)CC2)[C@H](c2cccc(Cl)c2F)[C@]12C(=O)Nc1cc(Cl)ccc12 [SAR405838],adverse event blood creatine phosphokinase,[5]; 26 patients,77%
same,adverse event diarrhoea,[5]; 26 patients,81%
same,adverse event nausea,[5]; 26 patients,62%
same,adverse event vomiting,[5]; 26 patients,62%
same,safety profile of the combination,[5],consistent with the safety profiles of both the drugs
same,3-month progression free rate,advanced solid tumor; 74 patients treated,32%
same,"best response, patients",advanced solid tumor; 74 patients treated,56%
same,safety profile,advanced solid tumor; patients with advanced solid tumors,acceptable safety profile
COc1cccc2c1C(=O)c1c(O)c3c(c(O)c1C2=O)C[C@@](O)(C(=O)CO)C[C@@H]3O[C@H]1C[C@H](N)[C@H](O)[C@H](C)O1 [doxorubicin],induction of p53,[6],decreased
"TRAIL: recombinant hTRAIL (TNFSF 10, Apo-2L, CD253) (protein) TSEETISTVQEKQQNISPLVRERGPQRVAAHITGTRGRSNTLSSPNSKNEKALGRKINSWESSRSGHSFLSNLHLRNGELVIHEKGFYYIYSQTYFRFQEEIKENTKNDKQMVQYIYKYTSYPDPILLMKSARNSCWSKDAEYGLYSIYQGGIFELKENDRIFVSVTNEHLIDMDHEASFFGAFLVG",apoptosis induced,OCI-AML3 cells,less apoptosis
